Where a name gives a salt, the structure may show the parent alone.

Experiment [1] has as its system mice. As to the kind of experiment: radiant heat tailflick assay after topical administration (tail immersed in DMSO drug solution). Conditions: for Opioid ED50 Value: opioid alone or opioid component of fixed-ratio combination; for response reached in dose-response curve: tested immediately; for response reached in dose-response curve / analgesic activity in words: FIG. 2; for analgesic activity in words: dose-response; for analgesic response: constant concentration, FIG. 1a; for peak response: fixed low dose: morphine 1.5 mM, lidocaine 0.9 mM, alone or both together, FIG. 3a. It counts as in vivo.

In experiment [2] the test system is subject's finger. The experiment in a line: radiant light heat source finger latency after topical gel application. It counts as in vivo, human. The settings on record: Lidocaine alone 0.125 mg/ml or morphine alone 0.25 mg/ml gel, FIG. 7.
For experiment [3] the following is noted: as an analgesic and as a respiratory depressant; cited from earlier work.
Where [4] appears, read: topical, increasing concentrations, 2 minutes, FIG. 4.
The mark [5] stands for this setting: 2 minutes exposure, listed as free base of lidocaine.

For `CN1CC[C@]23CCCC[C@H]2[C@H]1Cc1ccc(O)cc13` [Levorphanol], in experiment [1] (setting [4]), the ED50 came to 5000 µM and the “analgesic response in words” value is on record as “full analgesic responses”. The “Opioid ED50 Value” in experiment [1] (topical, tailflick) worked out at 5000 µM.
`CCN(CC)CC(=O)Nc1c(C)cccc1C` [Lidocaine HCl]: in experiment [1] (2 minutes exposure, HCl), the “response reached in dose-response curve” value was 50-60% and the “analgesic activity in words” value is recorded as “less effective”.
For `CCN(CC)CC(=O)Nc1c(C)cccc1C` [Lidocaine], the “response reached in dose-response curve” value in experiment [1] (setting [5]) amounted to 75%. Besides, the “time of decrease to baseline levels” value in experiment [1] (2 minutes exposure, time action curve over 30 minutes, FIG. 1b) is not above 20 min. For the same molecule, the analgesic response stood at 20% in experiment [1] (exposure 30 seconds) and 70% in experiment [1] (exposure 2 minutes). Further, the “analgesic activity in words” value in experiment [1] (setting [5]) is “biphasic dose-response curve”. In experiment [1], this molecule displayed a peak response of 20%. Also, the Shift came to 3.1 in experiment [1] (lidocaine ED50, + morphine 3.0 mM vs alone); 3.6 in experiment [1] (lidocaine ED50, + morphine 4.5 mM vs alone); 2.5 in experiment [1] (mouse, in vivo). Moreover, the ED50 came to 1000 µM in experiment [1] (topical lidocaine + morphine 1.5 mM); 800 µM in experiment [1] (topical lidocaine + morphine 3.0 mM); 700 µM in experiment [1] (topical lidocaine + morphine 4.5 mM); 2500 µM in experiment [1] (topical, drug alone). Besides, the “Lidocaine ED50 Value” in experiment [1] (topical, tailflick, lidocaine alone (initial portion of curve) or lidocaine component of fixed-ratio combination) was found to be 2500 µM. For the same molecule, the “change in latency compared to baseline, in words” value in experiment [2] was “Neither morphine nor Lidocaine produced appreciable changes in latency”.
Take `CN1CC[C@]23c4c5ccc(O)c4O[C@H]2[C@@H](O)C=C[C@H]3[C@H]1C5` [Morphine]: the “analgesic activity in words” value in experiment [1] (2 minutes exposure) is on record as “intermediate potency between the two forms of lidocaine”. Besides, the peak response in experiment [1] is 20%. Further, the Shift in experiment [1] (morphine ED50, + lidocaine 0.45 mM vs alone) is 1.7; in experiment [1] (morphine ED50, + lidocaine 0.9 mM vs alone), 4.1; in experiment [1] (morphine ED50, + lidocaine 1.8 mM vs alone), 4.7. For the same molecule, the ED50 came to 3600 µM in experiment [1] (topical morphine + lidocaine 0.45 mM); 1500 µM in experiment [1] (topical morphine + lidocaine 0.9 mM); 1300 µM in experiment [1] (topical morphine + lidocaine 1.8 mM); 6100 µM in experiment [1] (topical, drug alone). For the same molecule, the “Opioid ED50 Value” in experiment [1] (topical, tailflick) came to 6100 µM. Moreover, the “change in latency compared to baseline, in words” value in experiment [2] is given as “Neither morphine nor Lidocaine produced appreciable changes in latency”.
On to `COc1ccc2c3c1O[C@H]1[C@@H](O)C=C[C@H]4[C@@H](C2)N(C)CC[C@@]341` [codeine], for which the “effectiveness orally relative to parenterally” value in experiment [3] was “approximately 60%”.

The values above are taken from patent US6790855B2 (priority 2000, dated 2004).
